# Assay results reported in patent publication US6784176B2, “Solvates of pymetrozine” (priority 1999, dated 2004).
# Assay: Reversible water uptake and release of pymetrozine at defined relative humidity
# Type: physicochemical
# Conditions: room temperature
# Source text: The above-mentioned water content of 16 to 17% by weight corresponds very well to a dihydrate. Even pesticidal formulations that contain water-free and solvent-free pymetrozine take up usually water or the corresponding solvent from the atmosphere when left to stand under sufficiently high vapour pressure.
smiles,measurement,setting,value
CC1=NNC(=O)N(/N=C/c2cccnc2)C1 [pymetrozine],water taken up,relative humidity between 60% and 70%,16 to 17 % by weight
same,water release,"relative humidity of less than ca. 10%, water-containing pymetrozine",gives up the water completely
